Source: US6989390B2, “Amonafide salts” (priority 2002, dated 2006)

Assays:
[1] = tested on: SF268 (Glioma); assay: Cytotoxic activity in vitro, percent net growth (SRB/MTT); format: cell-based; conditions: SF268, 48 hours
Experimental: (§1) These cell lines are used by the National Cancer Institute: Developmental Therapeutics Branch in their preliminary screening process for antineoplastic agents. Subsequently, Amonafide Malate was tested against a larger panel of breast, lung and colon cell lines
(§2) Cells were grown in RPMI 1640 medium containing 5% fetal bovine serum and 2 mM L-glutamine. Dependent upon cell doubling time, between 5,000 and 40,000 cells were inoculated into 96 well microtiter plates in a volume of 100 uL per well. The plates were incubated at 37° C., 5% CO2, 95% air, and 100% relative humidity for 24 hours prior to the addition of the experimental drug. After the, 24 hour incubation, two (2) plates of each cell line were fixed in situ with trichloroacetic acid (TCA) to establish the cell population at time of drug addition (Tz).
(§3) Prior to use, the experimental drugs were solubilized in dimethyl sulfoxide at 400-fold the desired final maximum test concentration and frozen. At time of drug addition, an aliquot of frozen concentrate was thawed and diluted to twice the desired final maximum test concentration with complete medium containing 50 ug/ml gentamicin. An additional four (4) 10-fold or ½ log serial dilutions was made for a total of five (5) drug concentrations plus a control. An aliquot of 100 ul of each drug dilution was added to the appropriate well that already contains 100 ul of medium containing the cells. The plates were then incubated for 48 hours at 37° C., 5% CO2; 95% air and 100% relative humidity.
(§4) The number of viable cells was estimated by either a SRB or MTT calorimetric assays.
(§5) For SRB assay, cells were fixed in situ by the gentle addition of 50 ul cold (w/v) TCA (final concentration, 10% TCA) and incubated for 60 minutes at 4° C. The supernatant was discarded, plates washed five (5) times with tap water and air dried. Then Sulforhodamine B (SRB) solution (100 μl) at a 0.4% (w.v.) in 1% acetic acid was added to each well, and the plates incubated for 10 minutes at room temperature. Unbound dye was removed by washing five (5) times with 1% acetic acid and the plates were air dried. The bound stain was solubilized with 10 mM trizma base and the absorbance was read on an automated plate reader at a wavelength of 515 nm.
(§6) The MTT assay measures the ability of viable cells to reduce a tetrazolium salt (MTT) to an insoluble form, a formazan salt. For MTT analysis 20 μl of MTT solution (5 mg/ml in PBS) was added to each well containing cells. The plate was incubated at 37° C. for 5 hours. Media was removed with needle and syringe. 200 μl of DMSO was added to each well and pipetted up and down to dissolve crystals. Plate was placed into a 37° C. incubator for 5 minutes to dissolve air bubbles. Absorbance was read on an automated plate reader at a wavelength of 550 nm.
(§7) Percent net growth inhibition, as shown in FIGS. 2-7, was calculated using the seven absorbance measurements: absorbance by cells at time zero (Tz), absorbance by cells grown in the absence of drug (C), and absorbance of cells grown at the five drug concentrations (Ti). The following expression was used: % Net Growth=[(Ti−Tz)/(C−Tz)]×100 if Ti was greater than or equal to Tz. % Net Growth=[(Ti−Tz)/Tz]×100 if Ti was less than Tz.
(§8) Using the plot of Percent Net Growth as a function of drug concentration, lethality concentration “50%” (LC50), total growth inhibition (TGI) and growth inhibition “50%” (GI50) were determined as follows.

[2] = tested on: H460 (Non-Small Cell Lung Cancer); assay: as above; format: cell-based; conditions: H460, 48 hours
Experimental: as §1, §2, §3, §4, §5, §6, §7, §8

[3] = tested on: MCF7 (Breast); assay: as above; format: cell-based; conditions: MCF7, 48 hours
Experimental: as §1, §2, §3, §4, §5, §6, §7, §8

[4] = Minimum amount of water/ethanol (1.5/4 v/v) required to dissolve the crude salt at boil (recrystallization); format: physicochemical
Source text: For comparative purposes, between and among organic salts prepared in this manner and for the purposes of subsequent Example 3, Table 3, crude reaction products were recrystalized from water/ethanol (1.5/4 v/v per gram of salt) using the minimum amount of solvent to effect dissolution at boil.
In the case of succinic acid, the organic acid was dispensed as a half-equivalent in order to generate mitonafide hemisuccinate. […] Crude product that was isolated from the hydrogenation reaction mixture was analyzed for purity by high pressure liquid chromatography (HPLC) according to the conditions described in Table 1 above. The crude product was recrystallized from water/ethanol (1.5/4 v/v) using the minimum amount of solvent required to dissolve the crude product at boil, which is shown in the last column of Table 3 for each salt. The recrystallized product was then analyzed for purity by HPLC.
The purities of the crude salts were assessed by HPLC according to the conditions described in Table 1 above. The crude salts were then recrystallized from the minimum amount of water/ethanol (1.5/4 v/v) using the minimum amount of solvent required to dissolve the crude product at boil, which is shown in the last column of Table 3 for each salt. The resulting purified salts were again assessed for purity.
The hydrochloride and methanesulfonic acid salts of amonafide were prepared according to U.S. Pat. No. 5,420,137. Exemplary procedures are as follows: 3 g of crude amonafide free base, obtained as described in the previous two paragraphs, above, were dissolved under reflux in 60 ml of virtually anhydrous ethanol. Subsequently 1 ml of 35% (1 equivalent, estimated) strength hydrochloric acid was added dropwise while shaking vigorously. After cooling, the resulting crystals were filtered off and washed with 10 ml of anhydrous ethanol. The methanesulfonic acid salt was obtained using the same procedure, but replacing hydrochloric acid with 0.8 ml of methanesulfonic acid. The purity was assessed by HPLC using the conditions described in Table 1. The isolated products were then recrystallized from water/ethanol (1.5/4 v/v) using the minimum amounts of solvent required to dissolve the crude product at boil, which are shown for each salt in Table 3. The resulting purified salts were again assessed for purity.
The hydrochloride salt of amonafide was obtained by the method of Zee-Chang et al., U.S. Pat. No. 4,614,820. Exemplary conditions are as follows: a mixture of the hydrochloride salt of N-(dimethylaminoethyl)-3-nitro-1,8-naphthalimide and 10% palladium-on-charcoal in water was hydrogenated at room temperature under 40 lbs/in^2 of hydrogen for one hour. […] To the mixture was added 3 ml of concentrated hydrochloric acid. It was then filtered and the filtrate was evaporated to dryness under reduced pressure. The residue was triturated with 30 ml of absolute ethanol and filtered. The resulting solid was then washed with ether and dried. The purity was assessed by HPLC using the conditions described in Table 1. The crude product was then recrystallized from water/ethanol (1.5/4 v/v) using the minimum amount of solvent (40 mL/g) required to dissolve the crude product at boil. The resulting purified salts were again assessed for purity.

[5] = Percent Net Growth -50%, read-out: LC50 (the source's name)

Q: For `CN(C)CCN1C(=O)c2cccc3cc(N)cc(c23)C1=O.O=C(O)C[C@H](O)C(=O)O` [Amonafide Malate], which TGI ([1]; Percent Net Growth 0%) is on record?
A: The TGI was 154 µM.

Q: And the GI50 ([1]; Percent Net Growth 50%)?
A: The GI50 was 7.7 µM.

Q: And the TGI ([2]; Percent Net Growth 0%)?
A: Its TGI is 96 µM.

Q: What about the GI50 ([2]; Percent Net Growth 50%) of the same compound?
A: The GI50 was 4.11 µM.

Q: And the CC50 [2, 5]?
A: The CC50 was 170 µM.

Q: What about the TGI ([3]; Percent Net Growth 0%) of the same compound?
A: The TGI was 110 µM.

Q: And the GI50 ([3]; Percent Net Growth 50%)?
A: Its GI50 is 5.16 µM.

Q: What about the CC50 [3, 5] of the same compound?
A: Its CC50 is 662 µM.

Q: What about the “Solvent” value ([4]; minimum water/ethanol (1.5/4 v/v) to dissolve crude product at boil, salt made by the method in column 2) of the same compound?
A: Its value is 7.5 mL/g.

Q: What about the “recrystallization volume for purification, malate compared with HCl” value ([4]; water/ethanol 1.5/4 v/v) of the same compound?
A: The value was 5 times smaller.
